Laboratory results taken from publication PMC6829886, “Inhibition of Non-Small Cell Lung Cancer Cells by Oxy210, an Oxysterol-Derivative that Antagonizes TGFβ and Hedgehog Signaling” (Cells, 2019).

Columns and labels:
[1] = tested on: TGFβ induced activity of SBE-luciferase reporter; assay: SBE-luciferase (Smad response-element) reporter assay in NIH3T3-E1 cells; format: cell-based, mouse; details: 48 hrs
Protocol: NIH3T3-E1 cells cultured in 24 well-plates at 90% confluence were transiently transfected with 0.1 μg of Smad response-element reporter (SBE-Luciferase) plasmid (Qiagen), or with 0.1 μg of Gli response-element reporter (pGL3b-8xGli-Luciferase) plasmid, and 10 ng of pSV40-Renilla-Luciferase plasmid (Promega, Madison, WI, USA) with or without co-transfection with 10ng of Gli1 overexpression vector, pSRα-Gli1 using a Lipofectamine LTX Plus transfection reagent, as previously described [23]. […] 6 hrs after transfection, cells were treated with test agents for 72 h. […] Twenty-four hours after transfection, cells were treated with test agents for 20 h. Then the firefly and Renilla luciferase activities were measured using a dual luciferase kit (Promega) and a GloMax-96 Microplate Luminometer (Promega) or a plate reader-SpectraMax iD3 (Molecular Devices, San Jose, CA, USA). The firefly luciferase activities were normalized to the Renilla luciferase activities.
(d) NIH3T3 cells cultured in 24 well-plates were transfected with a Smad response element reporter (SBE-Luciferase) plasmid and a pTK-Renilla-Luciferase plasmid. 6 hrs after transfection, cells were treated with the test agents as indicated for 48 hrs. Luciferase activity was measured and normalized to the Renilla luciferase activity.

[2] = tested on: Gli1 transcriptional activity; assay: Gli responsive luciferase reporter in NIH3T3-E1 cells over expressing Gli1; format: cell-based, mouse; details: 10 μM, 72 hrs
Protocol: NIH3T3-E1 cells cultured in 24 well-plates at 90% confluence were transiently transfected with 0.1 μg of Smad response-element reporter (SBE-Luciferase) plasmid (Qiagen), or with 0.1 μg of Gli response-element reporter (pGL3b-8xGli-Luciferase) plasmid, and 10 ng of pSV40-Renilla-Luciferase plasmid (Promega, Madison, WI, USA) with or without co-transfection with 10ng of Gli1 overexpression vector, pSRα-Gli1 using a Lipofectamine LTX Plus transfection reagent, as previously described. Sufu-/- cells cultured in 24 well-plates at 90% confluence were transiently transfected with 0.1μg of pGL3b-8xGli-Luciferase plasmid, and 10 ng of pSV40-Renilla-Luciferase plasmid. 6 hrs after transfection, cells were treated with test agents for 72 h. […] Then the firefly and Renilla luciferase activities were measured using a dual luciferase kit (Promega) and a GloMax-96 Microplate Luminometer (Promega) or a plate reader-SpectraMax iD3 (Molecular Devices, San Jose, CA, USA). […]
Figure 5 Oxy210 acts downstream of Smo. […] After 72 h, RNA was extracted and analyzed by Q-RT-PCR for the expression of Hh target genes Gli1 and Hip, normalized to Oaz1 expression. […] Luciferase activity was measured and normalized to the Renilla luciferase activity. […]

[3] = tested on: GLI1, GLI2, SHH mRNA in A549 NSCLC cells; assay: GLI and SHH mRNA expression in A549 cells (Q-RT-PCR); format: cell-based, human
Protocol: Total RNA was extracted with the RNeasy Plus Mini Kit from Qiagen (Hilden, Germany) according to the manufacturer’s instructions. One microgram of RNA was reverse-transcribed using an iScript Reverse Transcription Supermix from Bio-Rad Laboratories (Hercules, CA, USA) to make single-stranded cDNA. The cDNAs were then mixed with Qi SYBR Green Supermix (Bio-Rad) for quantitative RT-PCR assay using a Bio-Rad I-cycler IQ quantitative thermocycler. All PCR samples were prepared in triplicate wells in a 96-well plate. After 40 cycles of PCR, melt curves were examined in order to ensure primer specificity. Fold changes in gene expression were calculated using the ΔΔCt method. Primers used for mouse were as follows: Oaz1 (5′-CCACTGCTTCGCCAGAGAG-3′) and (5′-CCCGGACCCAGGTTACTA-3′), Gli1 (5′- […]-3′ and 5′- GCT GATCCAGCCTAAGGTTCTC-3′), Ptch1 (5′-CCATCGGCGACAAGAACC-3′ and 5′-[…]-3′), Thbs1 (5′-[…]-3′ and 5′-CGGGGATCAGGTTGGCATT-3′), Cryab (5′-[…]-3′ and 5′-[…]-3′), Egr2 (5′-[…]-3′ and 5′-[…]-3′), CTGF (5′-GGGCCTCTTCTGCGATTTC-3′ and 5′-[…]-3′).
Primers used for human were as follows: GAPDH (5′- […]-3′ and 5′- […]-3′), SHH (5′- CGGAGCGAGGAAGGGAAAG-3′) and (5′- […]-3′), GLI1 (5′- GAAGCCGAGCCGAGTATC-3′ and 5′-[…]-3′), GLI2 (5′-[…]-3′ and 5′-[…]-3′), Fn-EDA (5′- […]-3′ and 5′- […]-3′), E-Cadherin (5′- […]-3′ and 5′- TCCCAGGCGTAGACCAAGA-3′), SNAIL (5′- […]-3′ and 5′- […]-3′), N-Cadherin (5′- […]-3′ and 5′- […]-3′), Vimentin (5′- […]-3′ and 5′- […]-3′), ZO-1 (5′- […]-3′ and 5′- […]-3′), MMP2 (5′- […]-3′ and 5′- […]-3′), MMP9 (5′-[…]-3′ and 5′-[…]).
Figure 6 Inhibition of Glis and SHH expression in Non-Small Cell Lung Cancer (NSCLC) cells. A549 (a) and H2030 (b) cells were treated with Oxy210 in RPMI 1640 containing 5% FBS for 72 h, then RNA was extracted and analyzed by Q-RT-PCR for the expression of the indicated genes and normalized to GAPDH expression. (c) A549 cells were pretreated for 2 h with Oxy210 in RPMI 1640 containing 5% FBS. […] After 48 h, RNA was extracted and analyzed by Q-RT-PCR for the expression of Gli1 and Shh and normalized to GAPDH expression. […]

[4] = tested on: GLI1, GLI2 mRNA in H2030 NSCLC cells; assay: GLI mRNA expression in H2030 cells (Q-RT-PCR); format: cell-based, human; details: 5 μM, 72 h
Protocol: Total RNA was extracted with the RNeasy Plus Mini Kit from Qiagen (Hilden, Germany) according to the manufacturer’s instructions. One microgram of RNA was reverse-transcribed using an iScript Reverse Transcription Supermix from Bio-Rad Laboratories (Hercules, CA, USA) to make single-stranded cDNA. The cDNAs were then mixed with Qi SYBR Green Supermix (Bio-Rad) for quantitative RT-PCR assay using a Bio-Rad I-cycler IQ quantitative thermocycler. All PCR samples were prepared in triplicate wells in a 96-well plate. After 40 cycles of PCR, melt curves were examined in order to ensure primer specificity. Fold changes in gene expression were calculated using the ΔΔCt method. […]
Figure 6 Inhibition of Glis and SHH expression in Non-Small Cell Lung Cancer (NSCLC) cells. A549 (a) and H2030 (b) cells were treated with Oxy210 in RPMI 1640 containing 5% FBS for 72 h, then RNA was extracted and analyzed by Q-RT-PCR for the expression of the indicated genes and normalized to GAPDH expression. […] After 48 h, RNA was extracted and analyzed by Q-RT-PCR for the expression of Gli1 and Shh and normalized to GAPDH expression. […]

Liver X Receptor (LXR) = format: cell-based; details: mouse

C[C@]12CC[C@H]3[C@@H](CC=C4C[C@@H](O)CC[C@@]43C)[C@@H]1CC[C@@H]2[C@](C)(O)CCc1cccnc1 [Oxy210, (3S,8S,9S,10R,13S,14S,17S)-17-((R)-2-hydroxy-4-(pyridin-3-yl)butan-2-yl)-10,13-dimethyl-2,3,4,7,8,9,10,11,12,13,14,15,16,17-tetradecahydro-1H-cyclopenta[a]phenanthren-3-ol]
TGFβ induced activity of SBE-luciferase reporter [1]: significantly inhibited | transcriptional activity of Gli responsive luciferase reporter trans-activated by exogenous Gli1 [2]: significantly inhibited | mRNA expression of GLI1 and GLI2 ([3]; 5 μM, 72 h): significantly inhibited | expression of SHH mRNA ([3]; 72 h): significantly inhibited | expression of GLI1 and SHH mRNA induced by TGFβ ([3]; TGFβ 10 ng/mL, 48 h): completely inhibited | mRNA expression of GLI1 and GLI2 [4]: significantly inhibited | ABCA1 expression (Liver X Receptor (LXR)): absence of ABCA1 expression
